For one molecule, Activity results are on record in ChEMBL document CHEMBL5537171, “Design, Synthesis, and Biological Evaluation of Potent and Selective PROTAC Degraders of Oncogenic KRASG12D” (J Med Chem, 2024).

The test has as its system von Hippel-Lindau disease tumor suppressor/GTPase KRas (Homo sapiens), P01116+P40337 [G13D]. Briefly: PROTAC activity at VHL/KRAS G13D mutant in human HCT-116 cells assessed as induction of protein degradation at 0.1 uM incubated for 24 hrs by Western blot analysis. Type of test: cell-based. For orientation: In western blotting, separated proteins are transferred to a membrane and probed.

Calls of active or inactive are those of the source. The calls are words filed in the database; no cut-off is given here.

`CCc1c(F)ccc2cc(O)cc(-c3ncc4c(N5C[C@H]6CC[C@@H](C5)N6)nc(OC[C@@H]5CCCN5CCCCOCC(=O)N[C@H](C(=O)N5C[C@H](O)C[C@H]5C(=O)N[C@@H](C)c5ccc(-c6scnc6C)cc5)C(C)(C)C)nc4c3F)c12`: the result was inactive.
